Source: patent US20240294895A1, “ENZYMATIC COMPOSITIONS FOR CARBOHYDRATE ANTIGEN CLEAVAGE ON DONOR ORGANS, METHODS AND USES ASSOCIATED THEREWITH” (THE UNIVERSITY OF BRITISH COLUMBIA, priority 2018, published 2024)

Key:
Assay type in all cases: biochemical
[1] = tested on: Flavonifractor plautii GalNAcDeacetylase FpGalNAcDeAc_D1min, mutant H252A; assay: Cleavage of A antigen Type2tetra-MU by FpGalNAcDeAc_D1min H252A; conditions: substrate depletion method for low-activity mutants
Description: (§1) kcat/KM parameter were determined for A antigen subtype 1/2/4tetra-MU at pH 7.4 at 37° C. Reactions (total volume of 100 μL) were performed in black 96-plate wells and as coupled assays in 100 mM NaH2PO4 (pH 7.4) with 12 nM FpGalNAcDeacetylase 0.1 mg/mL SpHex, BgaC (BgaA for subtype II), AfcA, at varying concentrations of substrate (25 μM, 20 μM, 15 μM, 10 μM, 7.5 μM, 5 μM). The reactions were run as a series of four with controls (no FpGalNAcDeacetylase) as duplicates. The fluorescence signal (365/435 nm) resulting from MU release by hydrolysis was monitored on a Synergy H1™ plate reader (BioTek™) and converted to concentration using MU standard concentration curves determined under identical reaction conditions. Initial rates (μM/s) were determined and plotted in Grafit™ 7.0 to determine the kcat/KM (s^−1*mM^−1) parameters.
(§2) Based on structural information (not shown) and sequence alignment (not shown) FpGalNAcDeAc_D1min and FpGalNase_truncA were mutated using the QuickChange™ protocol (Zhang 2004), utilizing the primers noted in TABLE B. The mutants were purified via NiNTA and HIC columns as described above. The structural integrity of all mutants was checked via CD spectroscopy; all tested enzymes were structurally similar to their wild-type. […]

[2] = tested on: Flavonifractor plautii GalNAcDeacetylase FpGalNAcDeAc_D1min, mutant C99S; assay: Cleavage of A antigen Type2tetra-MU by FpGalNAcDeAc_D1min C99S; conditions: pH 7.4, 37° C.
Description: as §1, §2

[3] = tested on: Flavonifractor plautii GalNAcDeacetylase FpGalNAcDeAc_D1min, mutant H252F; assay: Cleavage of A antigen Type2tetra-MU by FpGalNAcDeAc_D1min H252F; conditions: substrate depletion method for low-activity mutants
Description: as §1, with “Initial rates (μM/s) were determined and plotted in Grafit™ 7.0 to determine the kcat/KM (s^−1*mM^−1) parameters.” left out
as §2

[4] = tested on: Flavonifractor plautii GalNAcDeacetylase FpGalNAcDeAc_D1min, mutant C99A; assay: Cleavage of A antigen Type2tetra-MU by FpGalNAcDeAc_D1min C99A; conditions: pH 7.4, 37° C.
Description: as §1, §2

[5] = tested on: Flavonifractor plautii GalNAcDeacetylase FpGalNAcDeAc_D1min, mutant Y315F; assay: Cleavage of A antigen Type2tetra-MU by FpGalNAcDeAc_D1min Y315F; conditions: substrate depletion method for low-activity mutants
Description: as §1, §2

[6] = tested on: Flavonifractor plautii GalNAcDeacetylase FpGalNAcDeAc_D1min, mutant D100N; assay: Cleavage of A antigen Type2tetra-MU by FpGalNAcDeAc_D1min D100N; conditions: substrate depletion method for low-activity mutants
Description: kcat/KM parameter were determined for A antigen subtype 1/2/4tetra-MU at pH 7.4 at 37° C. […] The reactions were run as a series of four with controls (no FpGalNAcDeacetylase) as duplicates. The fluorescence signal (365/435 nm) resulting from MU release by hydrolysis was monitored on a Synergy H1™ plate reader (BioTek™) and converted to concentration using MU standard concentration curves determined under identical reaction conditions. […]
Based on structural information (not shown) and sequence alignment (not shown) FpGalNAcDeAc_D1min and FpGalNase_truncA were mutated using the QuickChange™ protocol (Zhang 2004), utilizing the primers noted in TABLE B. The mutants were purified via NiNTA and HIC columns as described above. The structural integrity of all mutants was checked via CD spectroscopy; all tested enzymes were structurally similar to their wild-type. For mutants with relatively low activity, reactions were carried out under the same conditions used for full kinetic determinations; however the substrate depletion method was used for determination of kcat/KM values as has been previously described (Vocadlo 2002). In brief: at low concentrations of substrate where [Substrate]<KM (equivalent to ˜⅕- 1/10 of Km) the kcat/KM value can be approximated upon non-linear fitting of the reaction time course to a first order curve and dividing by the enzyme concentration.

CC(=O)N[C@H]1[C@H](Oc2ccc3c(C)cc(=O)oc3c2)O[C@H](CO)[C@@H](O[C@@H]2O[C@H](CO)[C@H](O)[C@H](O[C@H]3O[C@H](CO)[C@H](O)[C@H](O)[C@H]3NC(C)=O)[C@H]2O[C@@H]2O[C@@H](C)[C@@H](O)[C@@H](O)[C@@H]2O)[C@@H]1O [A antigen Type2tetra-MU]
kcat/Km [1]: 1.4 ± 0.2 M⁻¹ s⁻¹ | kcat/Km [2]: 1259.9 ± 41.52 M⁻¹ s⁻¹ | kcat/Km [3]: 0.5 ± 0.033 M⁻¹ s⁻¹ | kcat/Km [4]: 2344.67 ± 96.63 M⁻¹ s⁻¹ | kcat/Km [5]: 2.78 ± 0.65 M⁻¹ s⁻¹ | kcat/Km [6]: 1.22 ± 0.083 M⁻¹ s⁻¹
